Where a name gives a salt, the structure may show the parent alone.
Target: recombinant human cathepsin C (Homo sapiens, UniProt P53634)
Experiment: Recombinant Cathepsin C in vitro assay (cleavage of fluorogenic substrate H-Ser-Tyr-AMC)
Format: biochemical
Details: average of two experiments; one hour preincubation, pH 5.5, room temperature; read-out: concentration giving 50% cathepsin C inhibition
Procedure: B. Recombinant Cathepsin C In Vitro Assay:
The activity of recombinant human cathepsin C was measured by the cleavage of a fluorogenic substrate, H-Ser-Tyr-AMC. Briefly, 24 pM cathepsin C was incubated with test compound (e.g. inhibitor) in a buffer consisting of 50 mM sodium acetate, 30 mM sodium chloride, 1 mM CHAPS, 1 mM dithiothreitol, 1 mM EDTA, pH 5.5 at room temperature for one hour. After one hour of incubating test compound with cathepsin C, the activity assay was initiated by the addition of an equal volume of 0.010 mM H-Ser-Tyr-AMC in the same buffer. After one hour, the activity assay was stopped by the addition of ⅕ volume of 100 μM E-64. The reaction product was measured on a fluorescence reader set at an excitation wavelength of 360 nm and emission wavelength of 460 nm and equipped with a 400 nm dichroic mirror.

Sequence of recombinant human cathepsin C (P53634 25-463): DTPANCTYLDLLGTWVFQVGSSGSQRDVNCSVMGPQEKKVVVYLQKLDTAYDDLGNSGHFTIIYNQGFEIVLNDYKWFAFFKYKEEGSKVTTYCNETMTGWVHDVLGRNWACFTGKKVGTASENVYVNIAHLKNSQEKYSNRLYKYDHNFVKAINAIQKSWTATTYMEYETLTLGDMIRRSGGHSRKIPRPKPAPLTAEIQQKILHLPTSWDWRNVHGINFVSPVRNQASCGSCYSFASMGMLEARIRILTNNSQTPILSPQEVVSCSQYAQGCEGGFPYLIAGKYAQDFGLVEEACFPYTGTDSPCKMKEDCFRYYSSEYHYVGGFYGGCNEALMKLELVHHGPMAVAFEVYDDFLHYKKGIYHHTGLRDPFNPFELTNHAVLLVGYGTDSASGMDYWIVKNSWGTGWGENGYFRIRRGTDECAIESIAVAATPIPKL

IC50 [nM] | Structure (SMILES)
< 1 | CC[C@@H](/C=C/C(=O)N1CCc2ccccc21)NC(=O)C1(N)CCOCC1 [Example 1, 4-amino-N-[(1S,2E)-4-(2,3-dihydro-1H-indol-1-yl)-1-ethyl-4-oxo-2-buten-1-yl]tetrahydro-2H-pyran-4-carboxamide hydrochloride]
< 1 | CC(C)C[C@@H](/C=C/C(=O)N1CCc2ccccc21)NC(=O)C1(N)CCOCC1 [Example 2, 4-amino-N-[(1S,2E)-4-(2,3-dihydro-1H-indol-1-yl)-1-(2-methylpropyl)-4-oxo-2-buten-1-yl]tetrahydro-2H-pyran-4-carboxamide hydrochloride]

Source: patent publication US8841463B2, “Cathepsin C inhibitors” (GlaxoSmithKline Intellectual Property Development Limited, priority 2011, dated 2014)
